Experimental data published in patent publication US4943576A, “Substituted quinoxalyl-imidazolidine-2,4-diones, processes for their preparation, their use as medicaments and pharmaceutical preparations” (Hoechst Aktiengesellschaft, priority 1987, dated 1990).
pIC50: −log10 of the molar value.

Assays:
[1] = system: sorbitol accumulation in nerve; assay: In vitro inhibition of sorbitol accumulation, nerve (tissue of normal rats); format: cell-based; details: Rattus norvegicus, 3 μmol/l
Method: (§1) 2. in vitro inhibition of the sorbitol accumulation in erythrocytes in the lens or in the sciatic nerve of normal or streptozotocin-diabetic rats;
(§2) In vitro inhibition of sorbitol accumulation (tissue of normal rats)
(§3) The inhibiting values summarized in Table 2 were determined for some of the compounds according to the invention at a concentration of 3 μmol/l.

[2] = system: sorbitol accumulation in nerve tissue; assay: Reduction of increased sorbitol levels in streptozotocin-diabetic rats, nerve tissue; format: in vivo; details: 25 mg/kg oral in Tylose suspension, vs untreated controls
Source text: (§4) 3. reduction of increased sorbitol levels in streptozotocin-diabetic rats in vivo;
(§5) Reduction of increased sorbitol levels
(§6) The oral administration in ®Tylose suspension (=suspension of a water-soluble cellulose ether), of the substances mentioned as examples in the following Table 3 to streptozotocin-diabetic rats leads to a great reduction in the sorbitol accumulation in erythrocytes and in the nerve tissue in comparison with untreated control animals.

[3] = system: sorbitol accumulation in erythrocytes; assay: Reduction of increased sorbitol levels in streptozotocin-diabetic rats, erythrocytes; format: in vivo; details: 25 mg/kg oral in Tylose suspension, vs untreated controls
Source text: as §4, §5, §6

[4] = system: sorbitol accumulation in erythrocytes; assay: In vitro inhibition of sorbitol accumulation, erythrocytes (tissue of normal rats); format: cell-based; details: Rattus norvegicus, Erythrocyte, 3 μmol/l
Method: as §1, §2, §3

[5] = target: aldose reductase (Rattus norvegicus, UniProt P07943); assay: In vitro inhibition of enzyme activity (rat hepatic enzyme preparation); format: biochemical; details: read-out: IC50 (molar concentration required for 50% inhibition of aldose reductase)
Source text: 1. in vitro inhibition of the enzyme activity of isolated aldose reductase;
In vitro inhibition of enzyme activity (rat hepatic enzyme preparation)
The inhibiting values on aldose reductase are summarized in Table 1 for some compounds according to the invention (IC50 [M] denotes the molar concentration of the compound which is required for 50% inhibition).

| Compound | inhibition at 3 µM [1] [%] | Sorbitol content after 5 hours in nerve tissue [2] [%] | Sorbitol content after 5 hours in erythrocytes [3] [%] | inhibition at 3 µM [4] [%] | pIC50 [5] |
| --- | --- | --- | --- | --- | --- |
| CCc1nc2ccc(C3(C)NC(=O)NC3=O)cc2nc1CC (centres unmarked) [Example 2, 5-(2',3'-Diethyl-quinoxalin-6'-yl)-5-methyl-imidazolidine2,4-dione] | -30 | -22 | -57 | – | – |
| 5-(6'/7'-Fluoro-quinoxalin-2'-yl)-5-methyl-imidazolidine-2,4-dione [Example 25] | – | -70 | -66 | – | – |
| COc1cc2ncc(C3(C)NC(=O)NC3=O)nc2cc1OC (centres unmarked) [Example 21, 5-(6',7'-Dimethoxy-quinoxalin-2'-yl)-5-methyl-imidazolidine-2,4-dione] | -38 | – | – | -26 | – |
| Cc1nc2ccccc2nc1C1(C)NC(=O)NC1=O (centres unmarked) [Example 23, 5-Methyl-5-(3'-methyl-quinoxalin-2'-yl)-imidazolidine-2,4-dione] | -65 | -83 | -72 | -21 | – |
| CC1(c2cnc3ccccc3n2)NC(=O)NC1=O (centres unmarked) [Example 18, 5-(Quinoxalin-2'-yl)-5-methyl-imidazolidine-2,4-dione] | -39 | – | – | -10 | – |
| Cc1nc2ccccc2nc1C1(C)NC(=O)NC1=O (single isomer, unassigned; (+)) [Example 33, (+)-5-Methyl-5-(3'-methyl-quinoxalin-2'-yl)-imidazolidine-2,4-dione] | -30 | – | – | -26 | – |
| 5-(6'/7'-Fluoro-3'-methyl-quinoxalin-2'-yl)-5-methyl-imidazolidine-2,4-dion [Example 26] | – | – | – | – | 3.55 |
| Cc1cc2nc(C)c(C3(C)NC(=O)NC3=O)nc2cc1C (centres unmarked) [Example 20, 5-Methyl-5-(3',6',7'-trimethyl-quinoxalin-2'-yl)-imidazolidine-2,4-dione hydrate] | – | – | – | -29 | – |
